Assay results published in patent publication US10947215B2, “Heteroaryl compounds and their use as therapeutic drugs” (Dong-A Socio Holdings Co., Ltd., priority 2015, dated 2021).

System: Ba/F3-CDM cells (Ba/F3 transfected with CD8-MerTK)
Experiment: In cell MER kinase assay, Ba/F3-CDM cell proliferation without IL-3 (Celltiter-Glo, GI50)
Format: cell-based, murine
Settings: 48 hours, read-out: Cell growth inhibition (GI50)
Procedure: In Cell MER Kinase Assay Using BaF3 Cellular System
To establish an in cell kinase assay for MerTK kinase, the IL-3 dependent Ba/F3 cells of murine lymphoid origin was transfected with CD8-MerTK. […] For a routine cellular assay, Ba/F3-CDM cells were seeded at 2,000 cells per well in 384-well cell culture plate containing DMEM/10% FBS culture media and incubated for 24 hours before addition of compounds pre-diluted in culture media. Following compound treatment, cells were further incubated for 48 hours and the proliferation was measured. To discriminate a Ba/F3 growth inhibition by a specific inhibition of MerTK kinase following compound treatment vs growth inhibition due to a non-specific unintended cytotoxicity of compounds, we routinely carried out control sets of Ba/F3 cells in parallel that grown in IL3-supplemented growth media. In the presence of IL-3, the proliferation of Ba/F3 is no longer dependent on the MerTK activity. Cell growth and proliferation was measured with Celltiter-Glo™ system (Promega, USA) according to the manufacturer's instruction. The half-maximal growth inhibitory concentration (GI50) value was calculated with Prism6.0 software (GraphPad, USA).

GI50 [nM] | SMILES
< 100 | CN1CCN(Cc2ccc(-c3ccc(CO[C@H]4CCC[C@@H]4NC(=O)c4cc(-c5ccc(CN6CCN(C)CC6)cc5)cnc4N)cc3)cc2)CC1 [Example 368, 2-amino-N-((1S,2S)-2-((4′-((4-methylpiperazin-1-yl)methyl)-[1,1′-biphenyl]-4-yl)methoxy)cyclopentyl)-5-(4-((4-methylpiperazin-1-yl)methyl)phenyl)nicotinamide]
< 100 | CN1CCN(Cc2ccc(-c3ccc(CO[C@H]4CCC[C@@H]4NC(=O)c4cc(-c5ccc(CO)cc5)cnc4N)cc3)cc2)CC1 [Example 369, 2-amino-5-(4-(hydroxymethyl)phenyl)-N-((1S,2S)-2-((4′-((4-methylpiperazin-1-yl)methyl)-[1,1′-biphenyl]-4-yl)methoxy)cyclopentyl)nicotinamide]
< 100 | Cc1cccc(-c2cnc(N)c(C(=O)N[C@H]3CCC[C@@H]3OCc3ccc(-c4ccc(CN5CCN(C)CC5)cc4)cc3)c2)c1 [Example 370, 2-amino-N-((1S,2S)-2-((4′-((4-methylpiperazin-1-yl)methyl)-[1,1′-biphenyl]-4-yl)methoxy)cyclopentyl)-5-(m-tolyl)nicotinamide]
< 100 | CN1CCN(Cc2ccc(-c3ccc(CO[C@H]4CCC[C@@H]4NC(=O)c4cc(-c5ccccc5)cnc4N)cc3)cc2)CC1 [Example 371, 2-amino-N-((1S,2S)-2-((4′-((4-methylpiperazin-1-yl)methyl)-[1,1′-biphenyl]-4-yl)methoxy)cyclopentyl)-5-phenyl nicotinamide]
< 100 | CN1CCN(Cc2ccc(-c3ccc(CO[C@H]4CCC[C@@H]4NC(=O)c4cc(-c5ccc(O)cc5)cnc4N)cc3)cc2)CC1 [Example 372, 2-amino-5-(4-hydroxyphenyl)-N-((1S,2S)-2-((4′-((4-methyl-piperazin-1-yl)methyl)-[1,1′-biphenyl]-4-yl)methoxy)cyclopentyl)nicotinamide]
< 100 | CN1CCN(Cc2ccc(-c3ccc(CO[C@H]4CCC[C@@H]4NC(=O)c4cc(-c5cccnc5)cnc4N)cc3)cc2)CC1 [Example 375, 6-amino-N-((1S,2S)-2-((4′-((4-methylpiperazin-1-yl)methyl)-[1,1′-biphenyl]-4-yl)methoxy)cyclopentyl)-[3,3′-bipyridine]-5-carboxamide]
< 100 | COc1ccc(-c2cnc(N)c(C(=O)N[C@H]3CCC[C@@H]3OCc3ccc(-c4ccc(CN5CCN(C)CC5)cc4)cc3)c2)cc1 [Example 376, 2-amino-5-(4-methoxyphenyl)-N-((1S,2S)-2-((4′-((4-methyl-piperazin-1-yl)methyl)-[1,1′-biphenyl]-4-yl)methoxy)cyclopentyl)nicotinamide]
< 100 | CN1CCN(Cc2ccc(-c3ccc(CO[C@H]4CCC[C@@H]4NC(=O)c4cc(-c5ccncc5)cnc4N)cc3)cc2)CC1 [Example 377, 6-amino-N-((1S,2S)-2-((4′-((4-methylpiperazin-1-yl)methyl)-[1,1′-biphenyl]-4-yl)methoxy)cyclopentyl)-[3,4′-bipyridine]-5-carboxamide]
< 100 | CC1CCN(Cc2ccc(-c3cnc(N)c(C(=O)N[C@H]4CCC[C@@H]4OCc4ccc(-c5ccc(CN6CCN(C)CC6)cc5)cc4)c3)cc2)CC1 [Example 378, 2-amino-N-((1S,2S)-2-((4′-((4-methylpiperazin-1-yl)methyl)-[1,1′-biphenyl]-4-yl)methoxy)cyclopentyl)-5-(4-((4-methylpiperidin-1-yl)methyl)phenyl)-nicotinamide]
< 100 | CN1CCN(Cc2ccc(-c3ccc(CO[C@H]4CCC[C@@H]4NC(=O)c4cc(-c5ccc(CN6CCOCC6)cc5)cnc4N)cc3)cc2)CC1 [Example 379, 2-amino-N-((1S,2S)-2-((4′-((4-methylpiperazin-1-yl)methyl)-[1,1′-biphenyl]-4-yl)methoxy)cyclopentyl)-5-(4-(morpholinomethyl)phenyl)nicotinamide]
< 100 | CN1CCN(Cc2ccc(-c3ccc(CO[C@H]4CCC[C@@H]4NC(=O)c4cc(-c5cnn(C6CCOCC6)c5)cnc4N)cc3)cc2)CC1 [Example 380, 2-amino-N-((1S,2S)-2-((4′-((4-methylpiperazin-1-yl)methyl)-[1,1′-biphenyl]-4-yl)methoxy)cyclopentyl)-5-(1-(tetrahydro-2H-pyran-4-yl)-1H-pyrazol-4-vi)nicotinamide]
< 100 | CN1CCN(Cc2ccc(-c3ccc(CO[C@H]4CCC[C@@H]4NC(=O)c4cc(-c5ccc(N6CCOCC6)cc5)cnc4N)cc3)cc2)CC1 [Example 381, 2-amino-N-((1S,2S)-2-((4′-((4-methylpiperazin-1-yl)methyl)-[1,1′-biphenyl]-4-yl)methoxy)cyclopentyl)-5-(4-morpholinophenyl)nicotinamide]
< 100 | COc1ccc(-c2cnc(N)c(C(=O)N[C@H]3CCC[C@@H]3OCc3ccc(-c4ccc(CN5CCN(C)CC5)cc4)cc3)c2)cc1OC [Example 383, 2-amino-5-(3,4-dimethoxyphenyl)-N-((1S,2S)-2-((4′-((4-methyl-piperazin-1-yl)methyl)-[1,1′-biphenyl]-4-yl)methoxy)cyclopentyl)nicotinamide]
< 100 | CN1CCN(Cc2ccc(-c3ccc(CO[C@H]4CCC[C@@H]4NC(=O)c4cc(-c5cc(F)nc(F)c5)cnc4N)cc3)cc2)CC1 [Example 384]
< 100 | CN1CCN(Cc2ccc(-c3ccc(CO[C@H]4CCC[C@@H]4NC(=O)c4cc(-c5ccc(F)nc5)cnc4N)cc3)cc2)CC1 [Example 386, 6-amino-6′-fluoro-N-((1S,2S)-2-((4′-((4-methylpiperazin-1-yl)methyl)-[1,1′-biphenyl]-4-yl)methoxy)cyclopentyl)-[3,3′-bipyridine]-5-carboxamide]
< 100 | CN1CCN(Cc2ccc(-c3ccc(CO[C@H]4CCC[C@@H]4NC(=O)c4cc(-c5cnn(C(F)(F)C(F)F)c5)cnc4N)cc3)cc2)CC1 [Example 387, 2-amino-N-((1S,2S)-2-((4′-((4-methylpiperazin-1-yl)methyl)-[1,1′-biphenyl]-4-yl)methoxy)cyclopentyl)-5-(1-(1,1,2,2-tetrafluoroethyl)-1H-pyrazol-4-yl)-nicotinamide]
> 1000 | CCc1cc(CO[C@H]2CNC[C@@H]2NC(=O)c2cc(-c3ccc(C(N)=O)cc3)cnc2N)ccc1C [Example 391, 2-amino-5-(4-carbamoylphenyl)-N-((3S,4S)-4-((3-ethyl-4-methylbenzyl)oxy)pyrrolidin-3-yl)nicotinamide]
> 1000 | CCc1cc(CO[C@H]2CNC[C@@H]2NC(=O)c2cc(-c3cccnc3)cnc2N)ccc1C [Example 396, 6-amino-N-((3S,4S)-4-((3-ethyl-4-methylbenzyl)oxy)pyrrolidin-3-yl)-[3,3′-bipyridine]-5-carboxamide]
> 1000 | CCc1cc(CO[C@H]2CNC[C@@H]2NC(=O)c2cc(-c3ccc(NS(C)(=O)=O)cc3)cnc2N)ccc1C [Example 401, 2-amino-N-((3S,4S)-4-((3-ethyl-4-methylbenzyl)oxy)pyrrolidin-3-yl)-5-(4-(methylsulfonamido)phenyl)nicotinamide]
> 1000 | CCc1cc(CO[C@H]2CNC[C@@H]2NC(=O)c2cc(-c3cnn(C4CCNCC4)c3)cnc2N)ccc1C [Example 412, 2-amino-N-((3S,4S)-4-((3-ethyl-4-methylbenzyl)oxy)pyrrolidin-3-yl)-5-(1-(piperidin-4-yl)-1H-pyrazol-4-yl)nicotinamide]
> 1000 | Cc1ccc(CO[C@H]2CNC[C@@H]2NC(=O)c2cc(-c3cnn(C)c3)cnc2N)cc1 [Example 415, 2-amino-5-(1-methyl-1H-pyrazol-4-yl)-N-((3S,4S)-4-((4-methylbenzyl)oxy)pyrrolidin-3-yl)nicotinamide]
> 1000 | CCc1cc(CO[C@H]2CNC[C@@H]2NC(=O)c2cc(-c3ccc(C(=O)NC4CCN(C)CC4)cc3)cnc2N)ccc1C [Example 419, 2-amino-N-((3S,4S)-4-((3-ethyl-4-methylbenzyl)oxy)pyrrolidin-3-yl)-5-(4-((1-methylpiperidin-4-yl)carbamoyl)phenyl)nicotinamide]
< 100 | CN1CCN(Cc2ccc(-c3ccc(CO[C@H]4CN(C)C[C@@H]4NC(=O)c4cc(-c5cnn(C)c5)cnc4N)cc3)cc2C(F)(F)F)CC1 [Example 437, 2-amino-5-(1-methyl-1H-pyrazol-4-yl)-N-((3S,4S)-1-methyl-4-((4′-((4-methylpiperazin-1-yl)methyl)-3′-(trifluoromethyl)-[1,1′-biphenyl]-4-yl)-methoxy)pyrrolidin-3-yl)nicotinamide]
> 1000 | Cn1cc(-c2cnc(N)c(C(=O)N[C@H]3CNC[C@@H]3OCc3ccc(-c4ccc(C(C)(C)N5CCN(CCO)CC5)cc4)cc3)c2)cn1 [Example 440]
> 1000 | CC(c1ccc(-c2ccc(CO[C@H]3CNC[C@@H]3NC(=O)c3cc(-c4cnn(C)c4)cnc3N)cc2)cc1)N1CCN(CCO)CC1 (stereo partly drawn) [Example 442, 2-amino-N-((3S,4S)-4-((4′-(1-(4-(2-hydroxyethyl)piperazin-1-yl)ethyl)-[1,1′-biphenyl]-4-yl)methoxy)pyrrolidin-3-yl)-5-(1-methyl-1H-pyrazol-4-yl)nicotinamide]
< 100 | CC(c1ccc(-c2ccc(CO[C@H]3CN(C)C[C@@H]3NC(=O)c3cc(-c4cnn(C)c4)cnc3N)cc2)cc1)N1CCN(CCO)CC1 (stereo partly drawn) [Example 443, 2-amino-N-((3S,4S)-4-((4′-(1-(4-(2-hydroxyethyl)piperazin-1-yl)ethyl)-[1,1′-biphenyl]-4-yl)methoxy)-1-methylpyrrolidin-3-yl)-5-(1-methyl-1H-pyrazol-4-yl)nicotinamide]
